Source: article PMC9146984, “A Novel Proline-Rich Cathelicidin from the Alpaca Vicugna pacos with Potency to Combat Antibiotic-Resistant Bacteria: Mechanism of Action and the Functional Role of the C-Terminal Region” (Membranes, 2022)
Values after ≈ are worked out from the molar mass of the structure shown. Where two headings read alike, the source gives them in different places. Where a SMILES comes first, the peptide text is derived from it.

What was measured:
E. coli BW25113 ΔmdtM = assay type: cell-based, Escherichia coli; conditions: Mueller–Hinton broth, 24 h, 37 °C, median
Protocol: (§1) The reduction of resazurin to resorufin was measured.

E. coli BW25113 ΔompF = assay type: cell-based, Escherichia coli; conditions: Mueller–Hinton broth, 24 h, 37 °C, median
Protocol: as §1

E. coli BW25113 ΔsbmA = assay type: cell-based, Escherichia coli; conditions: Mueller–Hinton broth, 24 h, 37 °C, median
Protocol: as §1

E. coli MDR CI 1057 = conditions: Mueller-Hinton broth supplemented with 0.9% NaCl; for Minimum inhibitory concentration E.coli MDR 1057 14 days w/o AMP: after 14 passages without antimicrobial agents; for Minimum inhibitory concentration E.coli MDR 1057 0 days: before passages
Protocol: (§2) Bacterial test cultures were grown in the Mueller-Hinton broth (MH; Sigma, St. Louis, MO, USA) at 37 °C to mid-log phase and then diluted with the 2× MH medium supplemented with 1.8% NaCl or without salt so that to reach a final cell concentration of 10^6 CFU/mL. 50 µL of the obtained bacterial suspension were added to aliquots of 50 µL of the peptide solutions serially diluted with sterilized 0.1% bovine serum albumin (BSA) in 96-well flat-bottom polystyrene microplates (Eppendorf #0030730011, Hamburg, Germany). […] To verify MIC values, the respiratory activity of the bacteria was determined. Briefly, 20 µL of 0.1 mg/mL resazurin (a redox indicator; Sigma, St. Louis, MO, USA) was added to the wells after 24 h of incubation, and the plate was incubated for an additional two hours. The reduction of resazurin to resorufin was measured. […] The results were expressed as the median values determined based on at least three independent experiments performed in triplicate.
(§3) Resistance induction experiments were performed using the previously described method. Briefly, on day one, the overnight culture of wild-type bacteria was diluted with the 2× MH broth supplemented with 1.8% NaCl to reach a final cell concentration of 10^6 CFU/mL. 50 µL of the obtained bacterial suspension were added to aliquots of 50 µL of the peptide solutions serially diluted with the sterilized 0.1% BSA in 96-well flat-bottom polystyrene microplates. After incubation for 20 ± 2 h at 37 °C and 950 rpm, MICs were determined as described above. For each subsequent daily transfer, 2–4 μL of the inoculum taken from the first well containing a sub-inhibitory drug concentration were diluted with 2 mL of the fresh 2× MH broth supplemented with 1.8% NaCl. […] 14 repeated passages in the presence of antimicrobial agents were made for each bacterial strain during the experiment. Bacteria that grew at the highest concentration of AMPs on the final day were passaged a further 3 times on drug-free agar plates before determining the final MIC value.

[1] = tested on: VicBac[1–22]-resistant E. coli MDR 1057 strain; conditions: Mueller-Hinton broth supplemented with 0.9% NaCl; strain selected 14 days with VicBac[1-22]; cross-resistance
Protocol: as §2, §3

E. coli BW25113 = assay type: cell-based, Escherichia coli; conditions: Mueller–Hinton broth, 24 h, 37 °C, median
Protocol: as §1

E. coli MDR 1057 = conditions: MH broth with 0.9% NaCl, 14 passages with the same agent (VicBac[1–22]: after 10 passages)
Protocol: Resistance induction experiments were performed using the previously described method. Briefly, on day one, the overnight culture of wild-type bacteria was diluted with the 2× MH broth supplemented with 1.8% NaCl to reach a final cell concentration of 10^6 CFU/mL. 50 µL of the obtained bacterial suspension were added to aliquots of 50 µL of the peptide solutions serially diluted with the sterilized 0.1% BSA in 96-well flat-bottom polystyrene microplates. After incubation for 20 ± 2 h at 37 °C and 950 rpm, MICs were determined as described above. For each subsequent daily transfer, 2–4 μL of the inoculum taken from the first well containing a sub-inhibitory drug concentration were diluted with 2 mL of the fresh 2× MH broth supplemented with 1.8% NaCl. […] Bacteria that grew at the highest concentration of AMPs on the final day were passaged a further 3 times on drug-free agar plates before determining the final MIC value.

SMILES | Minimum inhibitory concentration, E. coli strain ΔmdtM (E. coli BW25113 ΔmdtM; 0.9% NaCl: +) [µM] | Minimum inhibitory concentration, E. coli strain ΔmdtM (E. coli BW25113 ΔmdtM; 0.9% NaCl: −) [µM] | Minimum inhibitory concentration, E. coli strain ΔompF (E. coli BW25113 ΔompF; 0.9% NaCl: +) [µM] | Minimum inhibitory concentration, E. coli strain ΔompF (E. coli BW25113 ΔompF; 0.9% NaCl: −) [µM] | Minimum inhibitory concentration, E. coli strain ΔsbmA (E. coli BW25113 ΔsbmA; 0.9% NaCl: +) [µM] | Minimum inhibitory concentration, E. coli strain ΔsbmA (E. coli BW25113 ΔsbmA; 0.9% NaCl: −) [µM] | Minimum inhibitory concentration E.coli MDR 1057 14 days w/o AMP (E. coli MDR CI 1057) [µM] | Minimum inhibitory concentration E.coli MDR 1057 0 days (E. coli MDR CI 1057) [µM] | Minimum inhibitory concentration E.coli MDR 1057 14 days with VicBac [1-22] [1] [µM] | Minimum inhibitory concentration, E. coli strain BW25113 (E. coli BW25113; 0.9% NaCl: +) [µM] | Minimum inhibitory concentration, E. coli strain BW25113 (E. coli BW25113; 0.9% NaCl: −) [µM] | increase in MIC value after serial passage selection (E. coli MDR 1057) [fold]
CC[C@H](C)[C@H](NC(=O)[C@H](CCCNC(=N)N)NC(=O)[C@@H](N)CCCNC(=N)N)C(=O)N[C@@H](CCCNC(=N)N)C(=O)N1CCC[C@H]1C(=O)N[C@@H](CCCNC(=N)N)C(=O)N1CCC[C@H]1C(=O)N1CCC[C@H]1C(=O)N[C@@H](CCCNC(=N)N)C(=O)N[C@@H](CC(C)C)C(=O)N1CCC[C@H]1C(=O)N[C@@H](CCCNC(=N)N)C(=O)N1CCC[C@H]1C(=O)N[C@@H](CCCNC(=N)N)C(=O)N1CCC[C@H]1C(=O)N[C@@H](CCCNC(=N)N)C(=O)N1CCC[C@H]1C(=O)N[C@@H](CC(C)C)C(=O)N1CCC[C@H]1C(=O)N[C@@H](Cc1ccccc1)C(=O)N1CCC[C@H]1C(=O)N[C@@H](CCCNC(=N)N)C(=O)O [Bac7[1-22], reference compound] (H-RRIRPRPPRLPRPRPRPLPFPR-OH) | 1 (≈ 2.78 µg/mL) | 4 (≈ 11.1 µg/mL) | 32 (≈ 89.1 µg/mL) | 2 (≈ 5.57 µg/mL) | 32 (≈ 89.1 µg/mL) | 1 (≈ 2.78 µg/mL) | 1 (≈ 2.78 µg/mL) | 1 (≈ 2.78 µg/mL) | > 128 |  |  | 
CC[C@H](C)[C@H](NC(=O)[C@H](CCCCN)NC(=O)[C@H](CCC(=O)O)NC(=O)[C@H](CCCCN)NC(=O)[C@H](CO)NC(=O)[C@H](CCCCN)NC(=O)[C@H](CCCNC(=N)N)NC(=O)[C@H](Cc1ccccc1)NC(=O)[C@H](Cc1ccccc1)NC(=O)[C@H](CC(=O)O)NC(=O)CNC(=O)[C@H](CC(C)C)NC(=O)[C@@H](N)CC(C)C)C(=O)NCC(=O)N[C@@H](CCCCN)C(=O)N[C@@H](CCC(=O)O)C(=O)N[C@@H](Cc1ccccc1)C(=O)N[C@@H](CCCCN)C(=O)N[C@@H](CCCNC(=N)N)C(=O)N[C@H](C(=O)N[C@H](C(=O)N[C@@H](CCC(N)=O)C(=O)N[C@@H](CCCNC(=N)N)C(=O)N[C@H](C(=O)N[C@@H](CCCCN)C(=O)N[C@@H](CC(=O)O)C(=O)N[C@@H](Cc1ccccc1)C(=O)N[C@@H](CC(C)C)C(=O)N[C@@H](CCCNC(=N)N)C(=O)N[C@@H](CC(N)=O)C(=O)N[C@@H](CC(C)C)C(=O)N[C@H](C(=O)N1CCC[C@H]1C(=O)N[C@@H](CCCNC(=N)N)C(=O)N[C@H](C(=O)N[C@@H](CCC(=O)O)C(=O)N[C@@H](CO)C(=O)O)[C@@H](C)O)C(C)C)[C@@H](C)CC)C(C)C)[C@@H](C)CC [LL-37, reference compound] | 4 (≈ 18 µg/mL) | 4 (≈ 18 µg/mL) | 2 (≈ 8.99 µg/mL) | 4 (≈ 18 µg/mL) | 2 (≈ 8.99 µg/mL) | 4 (≈ 18 µg/mL) | 4 (≈ 18 µg/mL) | 4 (≈ 18 µg/mL) | 4 | 2 (≈ 8.99 µg/mL) | 4 (≈ 18 µg/mL) | 2
CC(C)C[C@H](NC(=O)[C@H](CCCNC(=N)N)NC(=O)[C@@H]1CCCN1C(=O)[C@@H]1CCCN1C(=O)[C@H](Cc1ccccc1)NC(=O)[C@H](Cc1ccccc1)NC(=O)[C@@H]1CCCN1C(=O)[C@@H]1CCCN1C(=O)[C@@H]1CCCN1C(=O)[C@H](CCCNC(=N)N)NC(=O)[C@@H]1CCCN1C(=O)[C@H](CCCNC(=N)N)NC(=O)[C@@H]1CCCN1C(=O)[C@H](CC(C)C)NC(=O)[C@H](Cc1ccc(O)cc1)NC(=O)[C@@H]1CCCN1C(=O)[C@@H]1CCCN1C(=O)[C@H](CCCNC(=N)N)NC(=O)[C@@H]1CCCN1C(=O)[C@H](CCCNC(=N)N)NC(=O)[C@H](CCCNC(=N)N)NC(=O)[C@@H](N)CCCNC(=N)N)C(=O)O [PR-39[1-22]] (H-RRRPRPPYLPRPRPPPFFPPRL-OH; N-terminus and C-terminus assumed) |  |  |  |  |  |  | 2 (≈ 5.53 µg/mL) | 2 (≈ 5.53 µg/mL) | > 128 |  |  | 
